Assay results reported in patent publication US9532957B2, “Method of stabilizing reduced coenzyme Q10” (Kaneka Corporation, priority 2001, dated 2017).

Legend:
[1] = Oxidation stability of reduced coenzyme Q10 ethanol solution with L-ascorbic acid, stirred in air at 50° C.; type: physicochemical; conditions: 1 part L-ascorbic acid per 100 parts solvent, after 50 hours
Procedure: In the examples, purity of reduced coenzyme Q10 and the weight ratio of reduced coenzyme Q10/oxidized coenzyme Q10 were determined by the HFLC analysis specified below. The reduced coenzyme Q10 purity values as determined, however, are by no means indicative of the limit purity value attainable in accordance with the present invention. Likewise, the ratio of the reduced coenzyme Q10 in the weight ratio of reduced coenzyme Q10/oxidized coenzyme Q10 values obtained never indicates the upper limit to that ratio.
Column; SYMMETRY C18 (product of Waters), 250 mm (in length), 4.6 mm (in inside diameter): mobile phase; C2H5OH/CH3OH=4/3 (v/v); detection wavelength; 210 nm; flow rate; 1 ml/min: retention time of reduced coenzyme Q10; 9.1 min: retention time of oxidized coenzyme Q10; 13.3 min.
Using the reduced coenzyme Q10 crystal obtained in Example 1, an ethanol solution containing 5 parts by weight of reduced coenzyme Q10 relative to 100 parts by weight of ethanol was prepared. To this ethanol solution, L-ascorbic acid was added so that 1 part by weight of L-ascorbic acid was contained relative to 100 parts by weight of the solvent (20 parts by weight relative to 100 parts by weight of reduced coenzyme Q10), and the solution was stirred in air at 50° C. […]

[2] = Preliminary investigations on stabilization of reduced coenzyme Q10; type: physicochemical

Molecule	X: The residual ratio of ascorbic acid [1] [%]	stabilization effect on reduced coenzyme Q10 ([2]; preliminary investigations)	stabilization effect on reduced coenzyme Q10 ([2]; used in combination with polyhydric alcohols having 3 or more OH, such as glycerine)
O=C1O[C@H]([C@@H](O)CO)C(O)=C1O [L-ascorbic acid]	85.2		
O=C1O[C@H]([C@@H](O)CO)C(O)=C1O [vitamin C]		has a stabilization effect	very poor
Vitamin E [reference compound]		does not have the effect	
